According to patent US11242337B2, “Compounds useful for treating gastrointestinal tract disorders” (Ardelyx, Inc., priority 2017, dated 2022):

Legend:
NHE3 = target: T1, NHE3 (Homo sapiens, UniProt P48764); assay: Cell-based assay of NHE-3 activity (pre-incubation inhibition), human; conditions: human Preincubation; for pIC50 / IC50: 0-30 μM test compound
T1 construct: expressed in transfected cells
T1 sequence (P48764 26-834): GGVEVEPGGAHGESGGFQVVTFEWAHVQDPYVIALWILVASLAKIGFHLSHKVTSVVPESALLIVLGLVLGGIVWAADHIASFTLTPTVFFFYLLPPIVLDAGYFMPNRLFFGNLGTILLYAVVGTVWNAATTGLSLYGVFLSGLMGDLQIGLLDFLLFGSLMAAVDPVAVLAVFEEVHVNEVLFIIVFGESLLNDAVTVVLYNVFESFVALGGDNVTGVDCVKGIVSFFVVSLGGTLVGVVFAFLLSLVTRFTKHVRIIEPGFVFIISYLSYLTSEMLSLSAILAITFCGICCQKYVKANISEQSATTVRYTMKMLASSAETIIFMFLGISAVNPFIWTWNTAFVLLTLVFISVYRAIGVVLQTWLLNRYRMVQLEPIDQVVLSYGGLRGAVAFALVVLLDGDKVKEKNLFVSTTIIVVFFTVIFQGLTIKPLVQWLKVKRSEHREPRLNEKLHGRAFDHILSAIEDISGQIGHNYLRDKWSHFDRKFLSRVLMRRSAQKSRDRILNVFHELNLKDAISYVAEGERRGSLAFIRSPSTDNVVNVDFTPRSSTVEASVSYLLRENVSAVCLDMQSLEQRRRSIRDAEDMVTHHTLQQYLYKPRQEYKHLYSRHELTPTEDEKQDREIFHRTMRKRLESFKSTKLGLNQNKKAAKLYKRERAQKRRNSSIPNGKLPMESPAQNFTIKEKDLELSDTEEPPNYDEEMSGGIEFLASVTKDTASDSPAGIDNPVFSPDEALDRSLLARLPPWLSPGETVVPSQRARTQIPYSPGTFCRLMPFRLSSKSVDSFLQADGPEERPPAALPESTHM
T1 sequence (Q99653 2-195 partner limits assumed): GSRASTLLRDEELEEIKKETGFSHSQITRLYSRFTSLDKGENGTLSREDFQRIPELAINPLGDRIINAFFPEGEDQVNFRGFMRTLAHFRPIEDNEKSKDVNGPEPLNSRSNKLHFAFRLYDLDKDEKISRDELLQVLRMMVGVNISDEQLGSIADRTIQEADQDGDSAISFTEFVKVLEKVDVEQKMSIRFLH
Procedure, shortened: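 PS120 fibroblasts stably expressing human NHE3 and NHERF2, loaded 30 min at 37 °C with 5 μM BCECF-AM in NH4Cl buffer, then acidified 10 min at room temperature in Na+-free buffer with 0–30 μM compound. Initial rate of BCECF fluorescence ratio change (FLIPR) per minute taken as Na+/H+ activity.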

[1] = system: human duodenum monolayer culture; assay: Sustained inhibition of apical acid secretion in human organoid monolayer cell cultures (duodenum); format: cell-based; conditions: Homo sapiens
Description: Basal media (BM) consisted of advanced DMEM/F12 containing 10 mM HEPES Invitrogen, 15630-080), 1:100 Glutamax (Invitrogen, 35050-061), and 1:100 penicillin/streptomycin (Invitrogen, 15140-122). Supplemented basal media (SBM) contained 1:100 N2 (Invitrogen, 17502-048), 1:50 B27 (Invitrogen, 12587-010), 1 mM N-acetylcysteine (Sigma, A9165), and 10 nM [Leu15]-gastrin I (Sigma, G9145). Growth factors used included 50 ng per mL mouse EGF (Peprotech, 315-09), 100 ng per mL mouse noggin (Peprotech, 250-38), 500 ng per mL human R-spondin 1 (R&D, 4645-RS), 100 ng per mL mouse Wnt-3a (R&D, 1324-WN), 20 μM. Y-27632 (Tocris, 1254), 10 mM nicotinamide (Sigma, N0636), 500 nM A83-01 (Tocris, 2939), 10 μM SB202190 (Tocris, 1264). Transwells were 0.4 μm pore polyester membrane 24-well Transwell inserts (Corning). Cultures were incubated at 37° C. in 5% CO2.
Each human ileum monolayer culture well was washed twice with fresh SBM on the apical side on day 6 before compound dosing. All compound stocks were 10 mM dissolved in DMSO. Each compound stock was individually mixed with fresh SBM to reach final compound concentration 1 μM and dosed only on the apical side of the monolayer (total volume 200 μl). DMSO at the equivalent concentration was used as the vehicle control. Duplicate wells were dosed for each compound. On day 8, apical media pH was measured by pH electrode, to determine the ability of example compounds to produce sustained inhibition of NHE3 activity in a human monolayer culture system by preventing proton secretion into the apical compartment.
Human duodenum organoids were cultured in WENRNAS (Wnt, EGF, noggin, R-spondin1, Nicotinamide, A83-01, SB202190) and typically grown for 7-12 days before being used to plate monolayer cultures. On day 0, organoid cultures embedded in Matrigel were treated with TrypLE Express to break organoids into small pieces and/or single cells. The cells were resuspended to 0.5×10^6 cells/mL in SBM containing WENRAY (Wnt, EGF, noggin, R-spondin1, A83-01, Y-27632). Following this step, 200 μL of cell suspension was plated into the apical side of a 24-well Transwell (100,000 cells/well) and 600 μL of SBM with WENRAY was added to the basolateral side. Duodenum cells were differentiated with ENA (EGF, noggin, A83-01) on day 3. The color of apical compartment turns from pink or orange to yellow due to the increase in NHE3 expression after differentiation.

| SMILES | % inhibition (NHE3) | pIC50 (NHE3) | IC50 (NHE3) | inhibition at 1 µM [1] |
| --- | --- | --- | --- | --- |
| N#Cc1cc(Cl)cc2c1C[C@H](N1CCNCC1)[C@H]2Oc1ccc(S(=O)(=O)NC2CCN(CCOCCNC(=O)NCCCCNC(=O)NCCOCCN3CCC(NS(=O)(=O)c4ccc(O[C@H]5c6cc(Cl)cc(C#N)c6C[C@@H]5N5CCNCC5)cc4)CC3)CC2)cc1 [Example 123, 4-([(1S,2S)-6-Chloro-4-cyano-2-(piperazin-1-yl)-2,3-dihydro-1H-inden-1-yl]oxy)-N-[1-(20-[4-([4-([(1S,2S)-6-chloro-4-cyano-2-(piperazin-1-yl)-2,3-dihydro-1H-inden-1-yl]oxy)phenyl]sulfonamide]piperidin-1-yl)-7,14-dioxo-3,18-dioxa-6,8,13,15-tetraazaicosyl]piperidin-4-yl)benzenesulfonamide] | C (>70%) | C (NHE3 pIC50 > 7) | – | > 70% |
| Cc1cc(Cl)cc2c1C[C@H](N(C)C)[C@H]2Oc1ccc(S(=O)(=O)NCCOCCOCCNC(=O)NCCCCNC(=O)NCCOCCOCCNS(=O)(=O)c2ccc(O[C@H]3c4cc(Cl)cc(C)c4C[C@@H]3N(C)C)c(F)c2)cc1F [Example 24, 3-[2-(2-[2-[(4-[[(1S,2S)-6-Chloro-2-(dimethylamino)-4-methyl-2,3-dihydro-1H-inden-1-yl]oxy]-3-fluorobenzene)sulfonamido]ethoxy]ethoxy)ethyl]-1-[4-([[2-(2-[2-[(4-[[(1S,2S)-6-chloro-2-(dimethylamino)-4-methyl-2,3-dihydro-1H-inden-1-yl]oxy]-3-fluorobenzene)sulfonamido]ethoxy]ethoxy)ethyl]carbamoyl]amino)butyl]urea] | C (>70%) | – | – | 50 to 70% |
| Cc1cc(S(=O)(=O)N2CC[C@@H](COc3ccnc(CNC(=O)NCCCCNC(=O)NCc4cc(OC[C@@H]5CCN(S(=O)(=O)c6ccc(O[C@H]7c8cc(Cl)cc(Cl)c8C[C@@H]7N(C)C)c(C)c6)C5)ccn4)c3)C2)ccc1O[C@H]1c2cc(Cl)cc(Cl)c2C[C@@H]1N(C)C [Example 49, 3-[(4-[[(3R)-1-[(4-[[(1S,2S)-4,6-Dichloro-2-(dimethylamino)-2,3-dihydro-1H-inden-1-yl]oxy]-3-methylbenzene)sulfonyl]pyrrolidin-3-yl]methoxy]pyridin-2-yl)methyl]-1-[4-([[(4-[[(3R)-1-[(4-[[(1S,2S)-4,6-dichloro-2-(dimethylamino)-2,3-dihydro-1H-inden-1-yl]oxy]-3-methylbenzene)sulfonyl]pyrrolidin-3-yl]methoxy]pyridin-2-yl)methyl]carbamoyl]amino)butyl]urea] | C (>70%) | B (NHE3 pIC50 6-7) | – | > 70% |
| N#Cc1cc(Cl)cc2c1C[C@H](N1CCCNCC1)[C@H]2Oc1ccc(S(=O)(=O)N[C@H]2CCN(CCOCCNC(=O)NCCCCNC(=O)NCCOCCN3CC[C@H](NS(=O)(=O)c4ccc(O[C@H]5c6cc(Cl)cc(C#N)c6C[C@@H]5N5CCCNCC5)cc4)C3)C2)cc1 [Example 126, 4-([(1S,2S)-6-Chloro-4-cyano-2-(1,4-diazepan-1-yl)-2,3-dihydro-1H-inden-1-yl]oxy)-N—[(S)-1-(20-[(S)-3-([4-([(1S,2S)-6-chloro-4-cyano-2-(1,4-diazepan-1-yl)-2,3-dihydro-1H-inden-1-yl]oxy)phenyl]sulfonamido)pyrrolidin-1-yl]-7,14-dioxo-3,18-dioxa-6,8,13,15-tetraazaicosyl)pyrrolidin-3-yl]benzenesulfonamide] | C (>70%) | – | < 100 nM | < 50% |
| Cc1cc(S(=O)(=O)NCCOCCOCCNC(=O)NCCCCNC(=O)NCCOCCOCCNS(=O)(=O)c2ccc(O[C@H]3c4cc(Cl)cc(C)c4C[C@@H]3N3CCNCC3)c(C)c2)ccc1O[C@H]1c2cc(Cl)cc(C)c2C[C@@H]1N1CCNCC1 [Example 35, 3-[2-(2-[2-[(4-[[(1S,2S)-6-Chloro-4-methyl-2-(piperazin-1-yl)-2,3-dihydro-1H-inden-1-yl]oxy]-3-methylbenzene)sulfonamido]ethoxy]ethoxy)ethyl]-1-[4-([[2-(2-[2-[(4-[[(1S,2S)-6-chloro-4-methyl-2-(piperazin-1-yl)-2,3-dihydro-1H-inden-1-yl]oxy]-3-methylbenzene)sulfonamido]ethoxy]ethoxy)ethyl]carbamoyl]amino)butyl]urea; bis(trifluoroacetic acid)] | C (>70%) | C (NHE3 pIC50 > 7) | – | > 70% |

Now from value to compound, other results behind:

| % inhibition (NHE3) | pIC50 (NHE3) | IC50 (NHE3) | SMILES | inhibition at 1 µM [1] |
| --- | --- | --- | --- | --- |
| C (>70%) | – | – | Cc1cc(S(=O)(=O)N[C@@H]2CCN(CCOCCNC(=O)NCCCCNC(=O)NCCOCCN3CC[C@@H](NS(=O)(=O)c4ccc(O[C@H]5c6cc(Cl)cc(C#N)c6C[C@@H]5N(C)C)c(C)c4)C3)C2)ccc1O[C@H]1c2cc(Cl)cc(C#N)c2C[C@@H]1N(C)C [Example 55, 3-(2-[2-[(3R)-3-[(4-[[(1S,2S)-6-Chloro-4-cyano-2-(dimethylamino)-2,3-dihydro-1H-inden-1-yl]oxy]-3-methylbenzene)sulfonamido]pyrrolidin-1-yl]ethoxy]ethyl)-1-(4-[[(2-[2-[(3R)-3-[(4-[[(1S,2S)-6-chloro-4-cyano-2-(dimethylamino)-2,3-dihydro-1H-inden-1-yl]oxy]-3-methylbenzene)sulfonamido]pyrrolidin-1-yl]ethoxy]ethyl)carbamoyl]amino]butyl)urea] | 50 to 70% |
| C (>70%) | – | < 100 nM | O=C(NCCCCNC(=O)NCCOCCN1CC[C@@H](NS(=O)(=O)c2ccc(O[C@H]3c4cc(Cl)cc(Cl)c4C[C@@H]3N3CCNCC3)c(F)c2)C1)NCCOCCN1CC[C@@H](NS(=O)(=O)c2ccc(O[C@H]3c4cc(Cl)cc(Cl)c4C[C@@H]3N3CCNCC3)c(F)c2)C1 [Example 105, 4-([(1S,2S)-4,6-Dichloro-2-(piperazin-1-yl)-2,3-dihydro-1H-inden-1-yl]oxy)-N—[(R)-1-(20-[(R)-3-([4-([(1S2S)-4,6-dichloro-2-(piperazin-1-yl)-2,3-dihydro-1H-inden-1-yl]oxy)-3-fluorophenyl]sulfonamido)pyrrolidin-1-yl]-7,14-dioxo-3,18-dioxa-6,8,13,15-tetraazaicosyl)pyrrolidin-3-yl]-3-fluorobenzenesulfonamide; tetra(trifluoroacetate)] | > 70% |
